Experimental data taken from the supplement of paper PMC10307832.

Key:
Assay in all cases: relative viability (nuclei count vs DMSO), 5 days (fraction); higher = more cells survive
[1] = compound: CCN1C(=O)C2=CC(=C(N=C2N(C1=O)C3CC3)N)C(=O)N + CS(=O)(=O)CCNCc1ccc(-c2ccc3ncnc(Nc4ccc(OCc5cccc(F)c5)c(Cl)c4)c3c2)o1 [Lapatinib] (partner 2 µM)
Method in brief: (§1)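 After 5 days of treatment, lung cancer cells in 1536-well plates were fixed and stained in a single step (final 0.05% Triton X-100, 1% formaldehyde, 1 ug/ml Hoechst) and their nuclei counted on 4× images. Treatment had been applied by pin tool the day after seeding as one drug alone or as a fixed anchor-drug dose with five library-drug doses (not always all listed) in √10 steps. Relative viability is the nuclei count of treated wells divided by that of vehicle wells, and values are medians of duplicate plates.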

[2] = compound: CCN1C(=O)C2=CC(=C(N=C2N(C1=O)C3CC3)N)C(=O)N + Cc1nc(NC(=O)N2CCC[C@H]2C(N)=O)sc1-c1ccnc(C(C)(C)C(F)(F)F)c1 [Alpelisib] (partner 2 µM)
Method in brief: as §1

[3] = compound: CCN1C(=O)C2=CC(=C(N=C2N(C1=O)C3CC3)N)C(=O)N + NC(=O)Nc1cc(-c2cccc(F)c2)sc1C(=O)N[C@H]1CCCNC1 [AZD7762] (partner 0.2 µM)
Method in brief: as §1

[4] = compound: CCN1C(=O)C2=CC(=C(N=C2N(C1=O)C3CC3)N)C(=O)N + Cc1nc(Nc2ncc(C(=O)Nc3c(C)cccc3Cl)s2)cc(N2CCN(CCO)CC2)n1 [Dasatinib] (partner 0.075 µM)
Method in brief: as §1

[5] = compound: CCN1C(=O)C2=CC(=C(N=C2N(C1=O)C3CC3)N)C(=O)N + N=C(N)NC(=N)NCCc1ccccc1 [Phenformin] (partner 250 µM)
Method in brief: as §1

Row | Cell Line | relative viability ([1]; first compound 0.253 µM) | relative viability ([1]; first compound 0.8 µM) | relative viability ([1]; first compound 2.53 µM) | relative viability ([1]; first compound 8 µM) | relative viability ([2]; first compound 0.253 µM) | relative viability ([2]; first compound 0.8 µM) | relative viability ([2]; first compound 2.53 µM) | relative viability ([2]; first compound 8 µM) | relative viability ([3]; first compound 0.253 µM) | relative viability ([3]; first compound 0.8 µM) | relative viability ([3]; first compound 2.53 µM) | relative viability ([3]; first compound 8 µM) | relative viability ([4]; first compound 0.253 µM) | relative viability ([4]; first compound 0.8 µM) | relative viability ([4]; first compound 2.53 µM) | relative viability ([4]; first compound 8 µM) | relative viability ([5]; first compound 0.253 µM) | relative viability ([5]; first compound 0.8 µM) | relative viability ([5]; first compound 2.53 µM) | relative viability ([5]; first compound 8 µM)
1 | NCI-H1703 | 1.01 | 0.946 | 1.09 | 1.43 | 0.339 | 0.342 | 0.31 | 0.368 | 0.13 | 0.126 | 0.164 | 0.137 | – | – | – | – | – | – | – | –
2 | NCI-H2009 | 0.93 | 1.23 | 0.892 | 0.847 | 1.17 | 1.11 | 1.13 | 1.09 | – | – | – | – | 0.289 | 0.291 | 0.275 | 0.259 | 0.481 | 0.485 | 0.453 | 0.453
3 | NCI-H2023 | 0.51 | 0.813 | 0.777 | 0.776 | 0.634 | 0.542 | 0.574 | 0.584 | – | – | – | – | 0.629 | 0.478 | 0.546 | 0.55 | 0.411 | 0.42 | 0.357 | 0.388
4 | NCI-H2228 | 0.893 | 1.1 | 1.26 | 1.26 | 0.622 | 0.669 | 0.709 | 1.16 | – | – | – | – | 0.505 | 0.467 | 0.508 | 0.55 | 0.405 | 0.372 | 0.331 | 0.395
5 | SK-LU-1 | 0.879 | 0.879 | 0.897 | 1.04 | 1.1 | 0.992 | 1.04 | 1.38 | – | – | – | – | 0.196 | 0.184 | 0.176 | 0.187 | 0.538 | 0.587 | 0.614 | 0.561
6 | SK-MES-1 | 0.478 | 0.485 | 0.451 | 0.492 | 0.865 | 0.917 | 0.85 | 0.962 | – | – | – | – | 0.409 | 0.393 | 0.393 | 0.448 | 0.628 | 0.687 | 0.662 | 0.642
7 | SW 900 | – | – | – | – | – | – | – | – | 0.601 | 0.643 | 0.635 | 0.633 | 0.447 | 0.599 | 0.68 | 0.511 | 0.498 | 0.625 | 0.493 | 0.563
8 | SW 1573 | 1.03 | 1.02 | 1.23 | 0.985 | 0.731 | 0.844 | 0.644 | 0.849 | – | – | – | – | 0.564 | 0.411 | 0.483 | 0.464 | 0.398 | 0.472 | 0.276 | 0.364
9 | UMC-11 | 1.12 | 0.909 | 1 | 0.9 | 1.09 | 0.942 | 0.863 | 1.07 | – | – | – | – | 0.463 | 0.434 | 0.485 | 0.496 | 0.322 | 0.319 | 0.304 | 0.293
